{"source": "patent US20040266650A1", "about": "“Washing and/or cleaning article” (priority 2001, published 2004)", "origin": "cited, not measured here", "note": "Like-named read-outs stand apart in the source and are kept apart here."}
{"compound": "O=C(O)CC(O)C(=O)O", "note": "(racemic) [DL-Malic acid]", "values": [{"measurement": "Solubility", "setting": "Table 2, in water at 26° C.", "result": 1440, "unit": "g/L"}, {"measurement": "Solubility", "setting": "Table 3, in water at 26° C.", "result": 1440, "unit": "g/L"}]}
{"compound": "[Cl-].[Cs+]", "note": "[Cesium chloride]", "values": [{"measurement": "Solubility", "setting": "Table 2, in water at 20° C.", "result": 1800, "unit": "g/L"}]}
{"compound": "O=C[C@H](O)[C@@H](O)[C@@H](O)[C@H](O)CO", "note": "[D(+)-Galactose]", "values": [{"measurement": "Solubility", "setting": "Table 2, in water at 25° C.", "result": 680, "unit": "g/L"}]}
{"compound": "O=C(CO)[C@@H](O)[C@H](O)[C@@H](O)CO", "note": "[L-(−)-Sorbose]", "values": [{"measurement": "Solubility", "setting": "Table 2, in water at 17° C.", "result": 550, "unit": "g/L"}]}
{"compound": "O=C(O)/C=C\\C(=O)O", "note": "[Maleic acid]", "values": [{"measurement": "Solubility", "setting": "Table 2, in water at 25° C.", "result": 788, "unit": "g/L"}, {"measurement": "Solubility", "setting": "Table 3, in water at 25° C.", "result": 788, "unit": "g/L"}]}
{"compound": "[Cl-].[K+]", "note": "[Potassium chloride]", "values": [{"measurement": "Solubility", "setting": "Table 2, in water at 20° C.", "result": 340, "unit": "g/L"}]}
{"compound": "NC(N)=O", "note": "[Urea]", "values": [{"measurement": "Solubility", "setting": "Table 2, in water at 20° C.", "result": 1080, "unit": "g/L"}]}
{"compound": "[Cl-].[Cl-].[Zn+2]", "note": "[Zinc chloride]", "values": [{"measurement": "Solubility", "setting": "Table 2, in water at 20° C.", "result": 3680, "unit": "g/L"}]}
{"compound": "Sodium polyphosphate", "values": [{"measurement": "Solubility", "setting": "Table 2, in water at 20° C.", "result": 1000, "unit": "g/L"}, {"measurement": "Solubility", "setting": "Table 3, in water, no temperature printed (Table 2: 20° C.)", "result": 1000, "unit": "g/L"}]}
